Values of other authors as cited in patent publication US20150272930A1, “Fixed Dosage Formulations of Angiotensin Converting Enzyme (ACE) inhibitor and the Diuretic Chlorthalidone” (AILEX Pharmaceuticals PVT. LTD., priority 2014, published 2015).

Details: compared with HCTZ

For `NS(=O)(=O)c1cc(C2(O)NC(=O)c3ccccc32)ccc1Cl` (centres unmarked) [Chlorthalidone, 2-chloro-5-(1-hydroxy-3-oxo-1,2-dihydroisoindol-1-yl)-benzenesulfonamide], which duration of action is on record?
Its duration of action is “longer duration of action”.

What about the antihypertensive effectiveness (over 24 hours) of the same molecule?
The antihypertensive effectiveness was “more effective antihypertensive agent”.
